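Protocol summary: plate cells (96-well), add compound at 5 concentrations, incubate 48 h, interpolate endpoints linearly. Here, GI50 denotes the concentration required for 50% inhibition of growth. At the TGI there is no net growth.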
How the values were obtained:
Assay in all cases: NCI anticancer screen, dose series, 48 h
CCRF-CEM leukemia = tested on: CCRF-CEM leukemia
COLO 205 colon = tested on: COLO 205 colon
KM12 colon = tested on: KM12 colon
M14 melanoma = tested on: M14 melanoma
SK-MEL-5 melanoma = tested on: SK-MEL-5 melanoma
SN12C renal = tested on: SN12C renal
SW-620 colon = tested on: SW-620 colon
UACC-257 melanoma = tested on: UACC-257 melanoma
UACC-62 melanoma = tested on: UACC-62 melanoma
SF-268 CNS = tested on: SF-268 CNS

| SMILES | TGI (CCRF-CEM leukemia) | TGI (COLO 205 colon) | TGI (KM12 colon) | TGI (M14 melanoma) | TGI (SK-MEL-5 melanoma) | TGI (SN12C renal) | TGI (SW-620 colon) | TGI (UACC-257 melanoma) | TGI (UACC-62 melanoma) | TGI (SF-268 CNS) | GI50 (CCRF-CEM leukemia) | GI50 (COLO 205 colon) | GI50 (KM12 colon) | GI50 (M14 melanoma) | GI50 (SF-268 CNS) | GI50 (SK-MEL-5 melanoma) | GI50 (SN12C renal) | GI50 (UACC-257 melanoma) | GI50 (UACC-62 melanoma) | GI50 (SW-620 colon) |
| --- | --- | --- | --- | --- | --- | --- | --- | --- | --- | --- | --- | --- | --- | --- | --- | --- | --- | --- | --- | --- |
| O=c1cc(-c2ccccn2)[nH]c2cccc(F)c12 | > 100 µM | > 100 µM | > 100 µM | > 100 µM | > 100 µM | > 100 µM | > 100 µM | > 100 µM | > 100 µM |  |  |  |  |  |  |  |  |  |  |  |
| N#C/C(=C1\SCC(=O)N1c1ccccc1)c1nc2ccccc2[nH]1 | > 100 µM | > 100 µM |  | > 100 µM | > 100 µM | > 100 µM | > 100 µM | > 100 µM | > 100 µM | > 100 µM |  |  |  |  |  |  |  |  |  |  |
| C#CC1(O)CCC2C3CCc4cc(Oc5nc(F)nc(-c6c7ccccc7c7n6CCS7)n5)ccc4C3CC[C@@]21C (stereo not given in full) | 80.1 µM | 70 µM | 28.3 µM | 40.5 µM | 45.5 µM |  | > 100 µM | > 100 µM | 86.2 µM | > 100 µM |  |  |  |  |  |  |  |  |  |  |
| CCCn1c(SCCSc2c3ccccc3c(-c3nc(F)nc(F)n3)n2CCC)c2ccccc2c1-c1nc(F)nc(F)n1 | > 100 µM | > 100 µM | > 100 µM | > 100 µM |  | > 100 µM | 32.6 µM | > 100 µM | > 100 µM | > 100 µM |  |  |  |  |  |  |  |  |  |  |
| O=C(O)C(Cc1cnc[nH]1)N1C(=O)c2ccccc2C1=O (stereo not given) |  | > 100 µM | > 100 µM | > 100 µM | > 100 µM | > 100 µM | > 100 µM | > 100 µM | > 100 µM | > 100 µM |  |  |  |  |  |  |  |  |  |  |
| [N-]=[N+]=NC(c1cn(C2CC(O)C(CO)O2)c(=O)[nH]c1=O)C(Cl)Br (stereo not given) | > 100 µM | > 100 µM | > 100 µM |  | > 100 µM | > 100 µM | > 100 µM |  |  |  |  |  |  |  |  |  |  |  |  |  |
| CNC(=O)NCC1OC(n2cnc3c(NC(=O)Nc4ccccc4)ncnc32)C(O[Si](C)(C)C(C)(C)C)C1O[Si](C)(C)C(C)(C)C (stereo not given) | > 100 µM | 3.36 µM | 4.14 µM | 18.5 µM | 4.75 µM | 3.38 µM |  | 20.2 µM | 23.6 µM | 14 µM | 3.59 µM | 1.89 µM | 2.13 µM | 4.33 µM | 3.58 µM | 1.98 µM | 1.81 µM | 3.78 µM | 3.98 µM |  |
| O=C(NCCN1CCOCC1)OCc1nc2nc(Cl)nc(N3CCOCC3)c2[nH]1 | > 100 µM | > 100 µM | > 100 µM |  | 4.72 µM | > 100 µM | > 100 µM | > 100 µM | > 100 µM | > 100 µM | 2.9 µM | > 100 µM | 1.96 µM |  | 3.02 µM | 2.1 µM | 2.16 µM | > 100 µM | 2.98 µM | 2.68 µM |
| COc1ccccc1/C=C1\COc2ccc(-c3ccccc3)cc2C1=O | 15.2 µM | 13 µM | 5.55 µM | 32.2 µM | 7.61 µM | > 100 µM | 5.6 µM |  | 45.2 µM | 10.4 µM | 2.08 µM | 3.57 µM | 1.93 µM | 4 µM | 3.14 µM | 2.19 µM | 3.17 µM |  | 4.39 µM | 2.39 µM |
| COc1c(C(C)=O)c(OCCCCOc2c(C(C)=O)c(OC)c3ccoc3c2OC)c(OC)c2occc12 |  | > 100 µM | > 100 µM | > 100 µM | 3.4 µM | > 100 µM | > 100 µM |  | > 100 µM | > 100 µM |  | 4.35 µM | 3.11 µM | 2.55 µM | > 42.1 µM | 1.52 µM | > 100 µM |  | 2.13 µM | > 100 µM |
| Nc1ccn(C2CC(F)C(CO)O2)c(=O)n1 (stereo not given) | > 100 µM | > 100 µM | > 100 µM | > 100 µM | > 100 µM | > 100 µM |  | > 100 µM | > 100 µM | > 100 µM | > 100 µM | > 100 µM | > 100 µM | > 100 µM | > 100 µM | > 100 µM | > 100 µM | > 100 µM | > 100 µM |  |
| CN(C)Cc1ccc(-c2cc3onc(-c4ccccc4)c3c(=O)n2C)cc1 |  | 41.1 µM | 43.8 µM | 30.7 µM | 47.1 µM | > 100 µM | 65.1 µM | 35.6 µM | 75 µM | > 100 µM |  |  |  |  |  |  |  |  |  |  |
| C/C(CC(=O)Nc1cccc(Cl)c1C)=N\NC(N)=S | > 100 µM | > 100 µM | > 100 µM | > 100 µM | > 100 µM |  | > 100 µM | > 100 µM | > 100 µM | > 100 µM |  |  |  |  |  |  |  |  |  |  |
| CCCn1c2c(c3c(O)cccc31)C(=O)c1ccccc1-2 | > 100 µM | > 100 µM |  | > 100 µM | > 100 µM | 98.5 µM | > 100 µM | 96.5 µM | 69.3 µM | > 100 µM | > 100 µM | > 100 µM |  | 60.6 µM | 19.5 µM | 11.9 µM | 21.9 µM | 22.9 µM | 15.2 µM | > 100 µM |
| Oc1c(C(Nc2ccccc2Br)c2ccccc2)ccc2cccnc12 (stereo not given) |  | 36.6 µM | > 100 µM | 8.47 µM | 7.38 µM | 35.1 µM | 25.3 µM | 8.48 µM | 7.33 µM | 17.3 µM |  | 2.75 µM | 2.47 µM | 2.3 µM | 1.7 µM | 1.72 µM | 2.68 µM | 1.88 µM | 1.39 µM | 2.63 µM |
| O=C(Oc1cccc(Cl)c1)c1ccccc1Nc1ccnc(C(F)(F)F)c1 | 91.6 µM |  | 41.4 µM | 4.46 µM | 6.73 µM | 6.18 µM | 23.3 µM |  | 6.71 µM | 10.8 µM | 0.898 µM |  | 9.53 µM | 1.77 µM | 3.03 µM | 2.59 µM | 2.92 µM |  | 2.02 µM | 4.33 µM |
| C=CCn1c(=S)sc2c(C(=O)OCC)c3c(C)cc(C)cn3c2c1=O | > 100 µM | > 100 µM |  | > 100 µM | > 100 µM | > 100 µM | > 100 µM | > 100 µM | > 100 µM | > 100 µM |  |  |  |  |  |  |  |  |  |  |
| Cc1c(C(=O)C/C(=N/NC(=O)c2ccccc2)C(=O)Nc2ccc(Cl)cc2)[n+](=O)c2ccccc2n1[O-] | 74.4 µM | > 100 µM | > 100 µM | > 100 µM | > 100 µM | > 100 µM | > 100 µM | > 100 µM |  | > 100 µM |  |  |  |  |  |  |  |  |  |  |
| COc1cc(-c2nc3ccccc3s2)ccc1OCCCCOc1cc2c(cc1OC)C(=O)N1CCC[C@H]1C=N2 | 2.1 µM | 2.26 µM |  | 2.92 µM | 2.01 µM | 3.87 µM | 2.72 µM | 5.78 µM | 2.84 µM | 4.65 µM | 0.102 µM | 0.697 µM |  | 1.38 µM | 1.28 µM | 0.724 µM | 1.39 µM | 2.49 µM | 1.41 µM | 0.801 µM |
| C/C(=C\c1ccn(-c2ccccc2N)n1)[C@@H]1C[C@@H]2O[C@]2(C)CCC[C@H](C)[C@H](O)[C@@H](C)C(=O)C(C)(C)[C@@H](O)CC(=O)O1 | > 50 µM | 0.641 µM | > 50 µM |  | > 50 µM | > 50 µM | > 50 µM | > 50 µM | > 50 µM | > 50 µM | 0.0343 µM | 0.0212 µM | 0.0203 µM |  | 0.111 µM | 0.0286 µM | 0.145 µM |  | 0.111 µM | 0.0245 µM |
| COc1cc2c(cc1OC)-c1ncc3c(OC)ccc(OC)c3c1C2 |  | > 100 µM | 83.7 µM | > 100 µM | 34.3 µM | 58 µM | > 100 µM | 55.4 µM | > 100 µM |  |  | 42.7 µM | 16.5 µM | > 100 µM |  | 12.4 µM | 14.8 µM | 19.7 µM | 18 µM | 35.1 µM |
| C/C(CC(=O)NCCc1ccccc1)=N\NS(=O)(=O)c1ccc(C)cc1 | > 100 µM | > 100 µM | > 100 µM | > 100 µM | > 100 µM |  | > 100 µM | > 100 µM | > 100 µM | > 100 µM |  |  |  |  |  |  |  |  |  |  |
| CCOC(=O)NC(=O)c1cn(CCN2CCN(C(=O)CNC(=O)CNC(=O)Cn3cc(C(=O)NC(=O)OCC)c(=O)[nH]c3=O)CC2)c(=O)[nH]c1=O | > 100 µM | > 100 µM | > 100 µM | > 100 µM |  | > 100 µM | > 100 µM | > 100 µM | > 100 µM | > 100 µM |  |  |  |  |  |  |  |  |  |  |
| Cc1ccc(S(=O)(=O)N/N=C(\c2nc3ccc(Cl)cc3[nH]c2=O)C(O)c2ccco2)cc1 (stereo not given) | > 100 µM | > 100 µM | > 100 µM | > 100 µM | > 100 µM |  | > 100 µM | > 100 µM | > 100 µM | > 100 µM |  |  |  |  |  |  |  |  |  |  |

Reference: PubChem BioAssay (NCI)
